Values of other authors as cited in the CATMoS acute toxicity set (Mansouri et al. 2021).
“And” between values parts separate entries of the source, which are not always exact repeats. Equal entries are not always repeated.

Test: rat acute oral toxicity
Conditions: in vivo

In order of falling LD50:
1. CC(C)=CC1C(C(=O)OCc2cc3c(cc2Cl)OCO3)C1(C)C (configuration not stated)  15000 mg/kg
2. CCCOC(=O)CCC  15000 mg/kg
3. O=[N+]([O-])c1ccc(C=Cc2ccc([N+](=O)[O-])cc2S(=O)(=O)O)c(S(=O)(=O)O)c1  12600 mg/kg
4. CC=C(C(=O)NC(N)=O)C(C)C  9000 mg/kg
5. O=C(O)CCC(=O)OC[C@@H](NC(=O)C(Cl)Cl)[C@H](O)c1ccc([N+](=O)[O-])cc1  8300 mg/kg
6. O=C(O)CNCC(=O)O  8070 mg/kg
7. COC(=O)C(=O)c1ccccc1  6800 mg/kg
8. CC(C)CCCC(C)(C)O  6800 mg/kg
9. CO[C@H]1C[C@H](O[C@H]2[C@H](C)[C@@H](O[C@@H]3O[C@H](C)C[C@H](N(C)C)[C@H]3O)[C@@H](C)C[C@]3(CO3)C(=O)[C@H](C)[C@@H](O)[C@@H](C)[C@@H](C)OC(=O)[C@@H]2C)O[C@@H](C)[C@@H]1O  6700 mg/kg
10. CC(O)CN(CC(C)O)CC(C)O (configuration not stated)  4730 mg/kg
11. CCc1ccc(CCO)nc1  4290 mg/kg
12. O=C(O)Cn1c(=O)n(Cc2ccc(Br)cc2F)c(=O)c2ccc(Cl)cc21  4250 mg/kg
13. COC(=O)Nc1cccc(OC(=O)Nc2cccc(C)c2)c1  4000 mg/kg
14. CCCc1c(OCc2cccn3c(=O)c(CC(=O)O)cnc23)ccc(C(C)=O)c1O  4000 mg/kg
15. COc1ccc2cc(CCC(C)=O)ccc2c1  3880 mg/kg
16. CCSc1nc(=O)n(CC(C)(C)C)c(=O)n1N  3500 mg/kg
17. Nc1cc(Cl)cc(C(=O)O)c1Cl  3500 mg/kg
18. C[Si](C)(C)OP(=O)(O[Si](C)(C)C)O[Si](C)(C)C  3440 mg/kg
19. CC(C)NCC(O)c1cc(O)cc(O)c1 (configuration not stated)  3370 mg/kg
20. Oc1ccc(Nc2ccccc2)cc1  3300 mg/kg
21. CCOC(=O)CC(C)(C)C(Cl)C=C(Cl)Cl (configuration not stated)  3170 mg/kg
22. CC(C)=CCC/C(C)=C/C#N  3100 mg/kg
23. OCCSSc1c(Cl)c(Cl)c(Cl)c(Cl)c1Cl  2860 mg/kg
24. CC(=O)Oc1c(C)ncc2c1COC(C(C)C)OC2 (configuration not stated)  2850 mg/kg
25. C1CSCCS1  2770 mg/kg
26. CCN(CC)C(=O)Cl  2700 mg/kg
27. Clc1nc(Cl)nc(Nc2ccccc2Cl)n1  2700 mg/kg
28. NS(=O)(=O)c1cc(-c2nnn[nH]2)c(NCc2cccs2)cc1Cl  2540 mg/kg
29. CCCCCCOCC(O)CO (configuration not stated)  2500 mg/kg
30. CCN(CC)CC(=O)c1c2c(cc3c1CCC3)CCC2  2220 mg/kg
31. CCC(CC)C(=O)O  2200 mg/kg
32. CCCOC(=O)c1cc(O)c(O)c(O)c1  2100 mg/kg
33. CCCCOCC  1870 mg/kg
34. C=CCNC(=O)OCC(O)C1COc2ccccc2O1 (configuration not stated)  1500 mg/kg
35. CC(C=O)=Cc1ccco1  1400 mg/kg
36. O=[PH](O)c1ccccc1  1340 mg/kg
37. CNc1ccc(NCCO)c2c1C(=O)c1ccccc1C2=O  1340 mg/kg
38. CCN(CC)CCO  1300 mg/kg
39. CN1CC[C@@]23CCCC[C@@H]2[C@@H]1Cc1ccc(O)cc13  1100 mg/kg
40. COc1cc2[nH]c(C)c(CCN3CCN(c4ccccc4)CC3)c2cc1OC  1000 mg/kg
41. Cc1ccc(C(=O)c2ccc(CC(=O)N3CCN(C)CC3)n2C)cc1  1000 mg/kg
42. COc1nc(C)nc(NC(=O)NS(=O)(=O)c2ccccc2CCC(F)(F)F)n1  986 mg/kg
43. CCC1(NC(N)=O)CCCC1  950 mg/kg
44. CCN(CC)CCNc1c(Cl)cc(C)c2ncccc12  900 mg/kg
45. CN(C)C=C1C(=O)N(c2ccccc2)N=C1c1ccccc1  890 mg/kg
46. CCOC(=O)OC(=O)OCC  850 mg/kg
47. CCc1ccc(OCC=C(C)CCC=C(C)C)cn1  800 mg/kg
48. CC[C@@]1(O)C[N@@]2CC[C@H]1C[C@@H]2[C@@H](O)c1ccnc2ccc(OC)cc12  600 mg/kg
49. CCCOc1ccc(Cl)cc1C(CN(C)C)C(C)CC (configuration not stated)  561 mg/kg
50. CC(C)NNC(=O)COc1ccc(Cl)cc1  550 mg/kg
51. N#CCCN1CC=C(c2cccc(C(F)(F)F)c2)CC1  515 mg/kg
52. CC(=O)CC(c1ccc([N+](=O)[O-])cc1)c1c(O)c2ccccc2oc1=O (configuration not stated)  513 mg/kg
53. Cc1nc2ccccc2[se]1  471 mg/kg
54. CCCC[P+](CCCC)(CCCC)Cc1ccc(Cl)s1  455 mg/kg
55. O=C1C=CC(=O)N1c1ccc(Cl)cc1  440 mg/kg
56. Clc1nc(Cl)c(Cl)c(Cl)c1Cl  435 mg/kg
57. COCCN1C=CC(=C2C(=O)c3ccccc3C2=O)C=C1  350 mg/kg
58. COP(=O)(OC)C(OC(C)=O)=C(Cl)Cl  300 mg/kg
59. CCC1(CCC(C)C)C(=O)N=C(O)NC1=O (configuration not stated)  275 mg/kg
60. C#CCN(C)C1CCc2ccccc21 (configuration not stated)  250 mg/kg
61. CNC(=O)ON=C(C)C(C)SC (configuration not stated)  153 mg/kg
62. C#CCOc1cccc(OC(=O)NC)c1  150 mg/kg
63. COc1c(OC)c(Cl)c2[nH]c(C(F)(F)F)nc2c1Cl  100 mg/kg
64. CCCC1OCS/C1=N\OC(O)=NC (configuration not stated)  83 mg/kg
65. CCSN(C)C(=O)Oc1cccc2c1OC(C)(C)C2  25 mg/kg
66. C=CC(C)=O  23.1 mg/kg
67. CC(=O)C1(O)Cc2c(O)c3c(c(O)c2C(OC2CC(N)C(O)C(C)O2)C1)C(=O)c1c(O)cccc1C3=O (configuration not stated)  23 mg/kg
68. CN(C)c1c(Cl)c(Cl)c(Cl)c2nc(C(F)(F)F)[nH]c12  22 mg/kg
69. CCOP(=O)(OCC)OC(=CBr)c1ccc(Cl)cc1Cl  21.4 mg/kg
70. FC(F)(F)c1nc2c(Cl)c(Br)c(Br)c(Br)c2[nH]1  5.25 mg/kg
71. CNC(=O)ON=C1SCCOC1(C)C  0.6 mg/kg

In the case of `c1ccc(C2(c3ccccc3)OCC(C3CCCCN3)O2)cc1` (configuration not stated), the LD50 is given as 310 mg/kg and 280 mg/kg.
